According to PubChem BioAssay (NCI):
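Protocol summary: plate cells (96-well), add compound at 5 concentrations, incubate 48 h, interpolate endpoints linearly. Definition used: TGI = concentration required for complete inhibition of growth.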

Legend:
Assay in all cases: NCI-60 cell line screen, 48 h
A498 renal = test system: A498 renal
SNB-78 CNS = test system: SNB-78 CNS
M19-MEL melanoma = test system: M19-MEL melanoma
A549 NSCLC = test system: A549 NSCLC
SK-OV-3 ovarian = test system: SK-OV-3 ovarian
OVCAR-8 ovarian = test system: OVCAR-8 ovarian
KM20L2 colon = test system: KM20L2 colon
NCI-H460 lung = test system: NCI-H460 lung
OVCAR-5 ovarian = test system: OVCAR-5 ovarian
SF-268 CNS = test system: SF-268 CNS
KM12 colon = test system: KM12 colon
M14 melanoma = test system: M14 melanoma
RXF 393 renal = test system: RXF 393 renal
MALME-3M melanoma = test system: MALME-3M melanoma
HCT-15 colon = test system: HCT-15 colon
CAKI-1 renal = test system: CAKI-1 renal
XF 498 CNS = test system: XF 498 CNS
CCRF-CEM leukemia = test system: CCRF-CEM leukemia
SNB-19 CNS = test system: SNB-19 CNS
DMS 273 small cell lung = test system: DMS 273 small cell lung
HOP-92 NSCLC = test system: HOP-92 NSCLC
K-562 leukemia = test system: K-562 leukemia
IGROV1 ovarian = test system: IGROV1 ovarian
LXFL 529 NSCLC = test system: LXFL 529 NSCLC
HCT-116 colon = test system: HCT-116 colon
SF-539 CNS = test system: SF-539 CNS
TK-10 renal = test system: TK-10 renal
SW-620 colon = test system: SW-620 colon
UACC-62 melanoma = test system: UACC-62 melanoma
OVCAR-4 ovarian = test system: OVCAR-4 ovarian
UO-31 renal = test system: UO-31 renal
EKVX NSCLC = test system: EKVX NSCLC
UACC-257 melanoma = test system: UACC-257 melanoma
SNB-75 CNS = test system: SNB-75 CNS
HL-60(TB) leukemia = test system: HL-60(TB) leukemia
DLD-1 colon = test system: DLD-1 colon
HCC-2998 colon = test system: HCC-2998 colon
DMS 114 small cell lung = test system: DMS 114 small cell lung
ACHN renal = test system: ACHN renal
OVCAR-3 ovarian = test system: OVCAR-3 ovarian
NCI-H23 lung = test system: NCI-H23 lung
SN12C renal = test system: SN12C renal
SK-MEL-28 melanoma = test system: SK-MEL-28 melanoma
U251 CNS = test system: U251 CNS
COLO 205 colon = test system: COLO 205 colon
SF-295 CNS = test system: SF-295 CNS
LOX IMVI melanoma = test system: LOX IMVI melanoma
SK-MEL-5 melanoma = test system: SK-MEL-5 melanoma
HOP-18 NSCLC = test system: HOP-18 NSCLC
HT29 colon = test system: HT29 colon
786-0 renal = test system: 786-0 renal
RPMI-8226 leukemia = test system: RPMI-8226 leukemia
RXF-631 renal = test system: RXF-631 renal
HOP-62 NSCLC = test system: HOP-62 NSCLC
NCI-H522 lung = test system: NCI-H522 lung
MOLT-4 leukemia = test system: MOLT-4 leukemia
NCI-H226 lung = test system: NCI-H226 lung
SK-MEL-2 melanoma = test system: SK-MEL-2 melanoma
SR leukemia = test system: SR leukemia

**Q.** What does the source list for Cn1cc(NC(=O)c2cc(NC(=O)CCCCCCC(=O)Nc3cc(C(=O)Nc4cc(C(=O)NCCC(=N)N)n(C)c4)n(C)c3)cn2C)cc1C(=O)NCCC(=N)N?
**A.** TGI (A498 renal): 5.28 µM; TGI (SNB-78 CNS): 69.5 µM; TGI (M19-MEL melanoma): 8.89 µM; TGI (A549 NSCLC): 54.4 µM; TGI (SK-OV-3 ovarian): > 100 µM; TGI (OVCAR-8 ovarian): 43.2 µM; TGI (KM20L2 colon): > 100 µM; TGI (NCI-H460 lung): 21.4 µM; TGI (OVCAR-5 ovarian): > 100 µM; TGI (SF-268 CNS): > 100 µM; TGI (KM12 colon): 13.3 µM; TGI (M14 melanoma): 33.9 µM; TGI (RXF 393 renal): 31.4 µM; TGI (MALME-3M melanoma): 12.1 µM; TGI (HCT-15 colon): > 100 µM; TGI (CAKI-1 renal): 89.7 µM; TGI (XF 498 CNS): 83 µM; TGI (CCRF-CEM leukemia): > 100 µM; TGI (SNB-19 CNS): > 100 µM; TGI (DMS 273 small cell lung): 12.7 µM; TGI (HOP-92 NSCLC): > 100 µM; TGI (K-562 leukemia): > 100 µM; TGI (IGROV1 ovarian): 12.8 µM; TGI (LXFL 529 NSCLC): 38.4 µM; TGI (HCT-116 colon): 41.6 µM; TGI (SF-539 CNS): 31 µM; TGI (TK-10 renal): 72.9 µM; TGI (SW-620 colon): > 100 µM; TGI (UACC-62 melanoma): 20.8 µM; TGI (OVCAR-4 ovarian): > 100 µM; TGI (UO-31 renal): > 100 µM; TGI (EKVX NSCLC): > 100 µM; TGI (UACC-257 melanoma): 5.98 µM; TGI (SNB-75 CNS): 38.6 µM; TGI (HL-60(TB) leukemia): 8.75 µM; TGI (DLD-1 colon): > 100 µM; TGI (HCC-2998 colon): 23.2 µM; TGI (DMS 114 small cell lung): 5.44 µM; TGI (ACHN renal): 54 µM; TGI (OVCAR-3 ovarian): 50.6 µM; TGI (NCI-H23 lung): 15.3 µM; TGI (SN12C renal): 33.1 µM; TGI (SK-MEL-28 melanoma): 16.9 µM; TGI (U251 CNS): 68.8 µM; TGI (COLO 205 colon): 18.9 µM; TGI (SF-295 CNS): > 100 µM; TGI (LOX IMVI melanoma): 18.5 µM; TGI (SK-MEL-5 melanoma): 3.89 µM; TGI (HOP-18 NSCLC): > 100 µM; TGI (HT29 colon): > 100 µM; TGI (786-0 renal): 33.8 µM

**Q.** Which TGI (A498 renal) does the source give for NS(=O)(=O)c1ccc(NC(=O)COC(=O)c2cccc3c(=O)c4ccccc4[nH]c23)cc1 here?
**A.** Its TGI is 51.8 µM.

**Q.** And the TGI (SNB-78 CNS)?
**A.** Its TGI is 44.5 µM.

**Q.** What about the TGI (M19-MEL melanoma) of the same compound?
**A.** Its TGI is greater than 100 µM.

**Q.** And the TGI (A549 NSCLC)?
**A.** The TGI was greater than 100 µM.

**Q.** And the TGI (RPMI-8226 leukemia)?
**A.** Its TGI is greater than 100 µM.

**Q.** And the TGI (SK-OV-3 ovarian)?
**A.** The TGI was 43.3 µM.

**Q.** And the TGI (OVCAR-8 ovarian)?
**A.** Its TGI is 65.8 µM.

**Q.** What about the TGI (KM20L2 colon) of the same compound?
**A.** Its TGI is greater than 100 µM.

**Q.** What about the TGI (RXF-631 renal) of the same compound?
**A.** The TGI was greater than 100 µM.

**Q.** And the TGI (NCI-H460 lung)?
**A.** Its TGI is greater than 100 µM.

**Q.** What about the TGI (OVCAR-5 ovarian) of the same compound?
**A.** Its TGI is greater than 90 µM.

**Q.** And the TGI (SF-268 CNS)?
**A.** The TGI was 36.9 µM.

**Q.** And the TGI (KM12 colon)?
**A.** Its TGI is greater than 85.5 µM.

**Q.** What about the TGI (M14 melanoma) of the same compound?
**A.** The TGI was greater than 100 µM.

**Q.** And the TGI (RXF 393 renal)?
**A.** Its TGI is 42.3 µM.

**Q.** What about the TGI (MALME-3M melanoma) of the same compound?
**A.** Its TGI is 50.5 µM.

**Q.** And the TGI (HCT-15 colon)?
**A.** The TGI was greater than 100 µM.

**Q.** What about the TGI (CAKI-1 renal) of the same compound?
**A.** Its TGI is greater than 100 µM.

**Q.** And the TGI (CCRF-CEM leukemia)?
**A.** The TGI was greater than 89.5 µM.

**Q.** And the TGI (SNB-19 CNS)?
**A.** Its TGI is 45.2 µM.

**Q.** What about the TGI (HOP-62 NSCLC) of the same compound?
**A.** The TGI was 40.2 µM.

**Q.** What about the TGI (DMS 273 small cell lung) of the same compound?
**A.** The TGI was greater than 95.1 µM.

**Q.** And the TGI (HOP-92 NSCLC)?
**A.** Its TGI is 38.6 µM.

**Q.** And the TGI (K-562 leukemia)?
**A.** The TGI was greater than 100 µM.

**Q.** And the TGI (IGROV1 ovarian)?
**A.** The TGI was 61.5 µM.

**Q.** What about the TGI (LXFL 529 NSCLC) of the same compound?
**A.** Its TGI is 20.9 µM.

**Q.** What about the TGI (NCI-H522 lung) of the same compound?
**A.** The TGI was 43.5 µM.

**Q.** What about the TGI (HCT-116 colon) of the same compound?
**A.** The TGI was greater than 74.9 µM.

**Q.** And the TGI (SF-539 CNS)?
**A.** The TGI was 32.7 µM.

**Q.** What about the TGI (MOLT-4 leukemia) of the same compound?
**A.** The TGI was greater than 47.2 µM.

**Q.** What about the TGI (TK-10 renal) of the same compound?
**A.** The TGI was 77.1 µM.

**Q.** And the TGI (SW-620 colon)?
**A.** Its TGI is greater than 100 µM.

**Q.** What about the TGI (UACC-62 melanoma) of the same compound?
**A.** The TGI was 34.7 µM.

**Q.** What about the TGI (OVCAR-4 ovarian) of the same compound?
**A.** The TGI was greater than 100 µM.

**Q.** What about the TGI (UO-31 renal) of the same compound?
**A.** The TGI was greater than 87 µM.

**Q.** And the TGI (EKVX NSCLC)?
**A.** The TGI was greater than 100 µM.

**Q.** What about the TGI (UACC-257 melanoma) of the same compound?
**A.** Its TGI is greater than 100 µM.

**Q.** What about the TGI (SNB-75 CNS) of the same compound?
**A.** Its TGI is 38.5 µM.

**Q.** What about the TGI (HL-60(TB) leukemia) of the same compound?
**A.** The TGI was greater than 100 µM.

**Q.** What about the TGI (DLD-1 colon) of the same compound?
**A.** Its TGI is greater than 100 µM.

**Q.** And the TGI (HCC-2998 colon)?
**A.** Its TGI is greater than 100 µM.

**Q.** And the TGI (NCI-H226 lung)?
**A.** The TGI was 61.1 µM.

**Q.** And the TGI (DMS 114 small cell lung)?
**A.** The TGI was 52.3 µM.

**Q.** What about the TGI (SK-MEL-2 melanoma) of the same compound?
**A.** The TGI was 69.8 µM.

**Q.** And the TGI (ACHN renal)?
**A.** Its TGI is 71.9 µM.

**Q.** What about the TGI (OVCAR-3 ovarian) of the same compound?
**A.** Its TGI is 47.6 µM.

**Q.** What about the TGI (SR leukemia) of the same compound?
**A.** The TGI was 19.7 µM.

**Q.** And the TGI (NCI-H23 lung)?
**A.** Its TGI is 60.5 µM.

**Q.** What about the TGI (SN12C renal) of the same compound?
**A.** Its TGI is 90 µM.

**Q.** What about the TGI (SK-MEL-28 melanoma) of the same compound?
**A.** The TGI was greater than 100 µM.

**Q.** What about the TGI (U251 CNS) of the same compound?
**A.** The TGI was 28.1 µM.

**Q.** And the TGI (COLO 205 colon)?
**A.** Its TGI is greater than 100 µM.

**Q.** What about the TGI (SF-295 CNS) of the same compound?
**A.** The TGI was 52.6 µM.

**Q.** And the TGI (LOX IMVI melanoma)?
**A.** Its TGI is 43 µM.

**Q.** What about the TGI (SK-MEL-5 melanoma) of the same compound?
**A.** Its TGI is greater than 100 µM.

**Q.** And the TGI (HOP-18 NSCLC)?
**A.** The TGI was 58.9 µM.

**Q.** What about the TGI (HT29 colon) of the same compound?
**A.** Its TGI is greater than 100 µM.

**Q.** What about the TGI (786-0 renal) of the same compound?
**A.** Its TGI is 45.3 µM.
